Assay results published in ChEMBL document CHEMBL3596159, “Beyond substrate analogues: new inhibitor chemotypes for glycosyltransferases” (Medchemcomm, 2014).
Converted amounts (≈) assume the structure as drawn. Each block holds one compound with its values, some of them ahead of it.

Assays:
[1] = target: UDP-N-acetylglucosamine--peptide N-acetylglucosaminyltransferase 110 kDa subunit (Homo sapiens, UniProt O15294); experiment: Inhibition of nucleocytoplasmic OGT (unknown origin)
[2] = Inhibition of short OGT (unknown origin); set-up: species or system Homo sapiens
[3] = target: T1, CMP-N-acetylneuraminate-beta-galactosamide-alpha-2,3-sialyltransferase 1 (Homo sapiens, UniProt Q11201); experiment: Inhibition of ST3Gal 1 (unknown origin) expressed in High Five cells; set-up: species or system BTI-TN-5B1-4
T1 sequence (Q11201 whole entry): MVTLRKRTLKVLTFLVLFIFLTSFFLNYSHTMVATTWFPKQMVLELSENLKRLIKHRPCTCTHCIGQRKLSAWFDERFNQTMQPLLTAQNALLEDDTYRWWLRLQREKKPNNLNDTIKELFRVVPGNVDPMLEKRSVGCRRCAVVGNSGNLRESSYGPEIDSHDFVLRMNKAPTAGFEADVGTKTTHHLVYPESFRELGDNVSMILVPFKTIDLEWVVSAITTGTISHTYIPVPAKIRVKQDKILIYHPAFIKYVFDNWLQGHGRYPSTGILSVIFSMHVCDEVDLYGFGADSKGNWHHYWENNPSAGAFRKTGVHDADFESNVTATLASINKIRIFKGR

[4] = target: T2, CMP-N-acetylneuraminate-beta-1,4-galactoside alpha-2,3-sialyltransferase (Homo sapiens, UniProt Q11203); experiment: Inhibition of ST3N (unknown origin)
T2 sequence (Q11203 whole entry): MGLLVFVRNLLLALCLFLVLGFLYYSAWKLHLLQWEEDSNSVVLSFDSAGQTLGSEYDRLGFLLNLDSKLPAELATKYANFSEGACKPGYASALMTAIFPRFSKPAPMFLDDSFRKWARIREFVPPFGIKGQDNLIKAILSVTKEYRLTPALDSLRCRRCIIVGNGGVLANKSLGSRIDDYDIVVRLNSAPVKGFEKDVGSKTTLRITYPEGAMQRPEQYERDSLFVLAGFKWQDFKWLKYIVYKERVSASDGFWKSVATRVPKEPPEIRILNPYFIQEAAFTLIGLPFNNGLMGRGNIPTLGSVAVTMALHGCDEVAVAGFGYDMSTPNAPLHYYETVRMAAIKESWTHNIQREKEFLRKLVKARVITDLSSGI

[5] = target: T3, 4-galactosyl-N-acetylglucosaminide 3-alpha-L-fucosyltransferase FUT6 (Homo sapiens, UniProt P51993); experiment: Inhibition of FucT-6 (unknown origin)
T3 sequence (P51993 whole entry): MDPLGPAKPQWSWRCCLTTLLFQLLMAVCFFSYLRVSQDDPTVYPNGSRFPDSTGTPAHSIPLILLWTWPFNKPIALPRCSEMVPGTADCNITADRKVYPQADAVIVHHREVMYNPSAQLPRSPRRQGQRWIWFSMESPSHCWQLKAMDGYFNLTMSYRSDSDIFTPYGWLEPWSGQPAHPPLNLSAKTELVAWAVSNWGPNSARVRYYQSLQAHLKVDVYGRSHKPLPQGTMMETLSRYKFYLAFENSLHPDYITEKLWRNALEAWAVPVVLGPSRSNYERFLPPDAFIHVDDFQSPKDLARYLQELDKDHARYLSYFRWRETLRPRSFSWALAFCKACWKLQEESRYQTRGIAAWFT

[6] = target: T1, CMP-N-acetylneuraminate-beta-galactosamide-alpha-2,3-sialyltransferase 1; experiment: Inhibition of ST3Gal 1 (unknown origin)
[7] = target: T4, Beta-galactoside alpha-2,6-sialyltransferase 1 (Homo sapiens, UniProt P15907); experiment: Inhibition of ST6N (unknown origin)
T4 sequence (P15907 whole entry): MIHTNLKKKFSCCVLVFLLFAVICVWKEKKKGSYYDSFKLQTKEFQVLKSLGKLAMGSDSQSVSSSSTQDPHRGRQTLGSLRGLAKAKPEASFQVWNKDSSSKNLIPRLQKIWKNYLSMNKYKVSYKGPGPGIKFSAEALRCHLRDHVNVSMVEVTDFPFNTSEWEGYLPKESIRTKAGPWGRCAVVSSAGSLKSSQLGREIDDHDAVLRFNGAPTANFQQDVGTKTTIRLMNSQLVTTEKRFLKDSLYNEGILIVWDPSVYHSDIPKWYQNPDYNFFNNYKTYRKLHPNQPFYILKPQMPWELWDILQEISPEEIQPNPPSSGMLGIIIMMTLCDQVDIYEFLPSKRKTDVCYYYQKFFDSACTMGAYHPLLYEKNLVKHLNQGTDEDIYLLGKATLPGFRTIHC

[8] = target: T5, 4-galactosyl-N-acetylglucosaminide 3-alpha-L-fucosyltransferase FUT5 (Homo sapiens, UniProt Q11128); experiment: Inhibition of FucT-5 (unknown origin)
T5 sequence (Q11128 whole entry): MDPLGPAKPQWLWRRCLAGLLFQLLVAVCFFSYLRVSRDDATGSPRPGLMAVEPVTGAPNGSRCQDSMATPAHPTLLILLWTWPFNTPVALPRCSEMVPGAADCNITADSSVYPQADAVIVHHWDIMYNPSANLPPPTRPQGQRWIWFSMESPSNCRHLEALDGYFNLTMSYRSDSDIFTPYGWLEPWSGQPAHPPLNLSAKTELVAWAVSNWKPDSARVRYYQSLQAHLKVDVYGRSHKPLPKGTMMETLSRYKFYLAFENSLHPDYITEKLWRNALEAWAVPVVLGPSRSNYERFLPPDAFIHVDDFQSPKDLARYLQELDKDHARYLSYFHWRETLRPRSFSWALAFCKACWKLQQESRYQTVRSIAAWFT

[9] = target: T6, UDP-N-acetylglucosamine--N-acetylmuramyl-(pentapeptide) pyrophosphoryl-undecaprenol N-acetylglucosamine transferase (Escherichia coli (strain K12)) (UniProt P17443); experiment: Inhibition of Escherichia coli MurG at 2.5 microg/ml
T6 sequence (whole entry): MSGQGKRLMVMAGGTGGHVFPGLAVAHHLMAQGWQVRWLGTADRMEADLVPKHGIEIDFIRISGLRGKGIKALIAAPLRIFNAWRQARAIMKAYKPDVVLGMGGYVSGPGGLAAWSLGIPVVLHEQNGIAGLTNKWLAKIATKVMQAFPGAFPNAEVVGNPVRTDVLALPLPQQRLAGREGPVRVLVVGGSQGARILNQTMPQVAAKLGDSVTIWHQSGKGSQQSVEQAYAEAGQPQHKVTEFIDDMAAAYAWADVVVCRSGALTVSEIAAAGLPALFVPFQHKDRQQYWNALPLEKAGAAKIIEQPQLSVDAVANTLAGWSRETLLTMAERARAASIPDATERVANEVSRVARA

[10] = target: UDP-N-acetylglucosamine--N-acetylmuramyl-(pentapeptide) pyrophosphoryl-undecaprenol N-acetylglucosamine transferase (Escherichia coli (strain K12), UniProt P17443); experiment: Inhibition of Escherichia coli MurG
[11] = target: T7, Phospho-N-acetylmuramoyl-pentapeptide-transferase/UDP-N-acetylglucosamine--N-acetylmuramyl-(pentapeptide) pyrophosphoryl-undecaprenol N-acetylglucosamine transf (Escherichia coli K-12, UniProt P0A6W3+P17443); experiment: Inhibition of Escherichia coli MraY/MurG; format: protein assay
T7 sequence (P0A6W3 whole entry): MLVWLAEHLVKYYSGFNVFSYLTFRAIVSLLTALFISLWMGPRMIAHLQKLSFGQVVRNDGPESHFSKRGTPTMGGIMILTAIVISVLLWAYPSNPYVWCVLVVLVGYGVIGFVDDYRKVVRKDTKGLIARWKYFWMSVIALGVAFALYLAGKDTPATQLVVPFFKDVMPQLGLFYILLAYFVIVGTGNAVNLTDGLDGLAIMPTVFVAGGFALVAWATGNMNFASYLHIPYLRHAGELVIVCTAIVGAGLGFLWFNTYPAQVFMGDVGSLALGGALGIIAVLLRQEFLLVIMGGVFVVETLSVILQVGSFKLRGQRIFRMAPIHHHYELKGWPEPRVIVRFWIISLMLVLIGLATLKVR
T7 sequence (P17443 whole entry): T6 sequence (whole entry)

[12] = target: T4, Beta-galactoside alpha-2,6-sialyltransferase 1; experiment: Inhibition of human ST6Gal1
[13] = target: Beta-galactoside alpha-2,6-sialyltransferase 1 (Rattus norvegicus, UniProt P13721); experiment: Inhibition of rat ST6Gal1
Chain of Beta-galactoside alpha-2,6-sialyltransferase 1 (Rattus norvegicus, UniProt P13721) (P13721 whole entry): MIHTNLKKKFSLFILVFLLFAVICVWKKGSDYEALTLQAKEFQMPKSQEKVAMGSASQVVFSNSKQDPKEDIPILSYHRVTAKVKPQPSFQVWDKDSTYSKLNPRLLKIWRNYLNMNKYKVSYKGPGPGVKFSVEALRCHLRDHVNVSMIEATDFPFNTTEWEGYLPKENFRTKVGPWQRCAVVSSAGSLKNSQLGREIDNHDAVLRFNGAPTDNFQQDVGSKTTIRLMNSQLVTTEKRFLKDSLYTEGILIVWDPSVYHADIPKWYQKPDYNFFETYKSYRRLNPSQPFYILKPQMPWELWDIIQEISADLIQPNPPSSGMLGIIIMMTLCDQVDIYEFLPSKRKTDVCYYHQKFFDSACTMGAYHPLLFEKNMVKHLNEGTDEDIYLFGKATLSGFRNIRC

[14] = Inhibition of candida albicans beta-(1,3)-glucan synthase assessed as decrease in transfer of radiolabelled glucose from UDP-[3H]-glucose onto acceptor
Candida albicans = experiment: Antifungal activity against Candida albicans; format: functional
[15] = Inhibition of bovine beta-1,4-GalT using alpha-Fucp-(1-2)-beta-Galp-O-(CH2)7-CH3 as acceptor and UDP-Gal as substrate by radiochemical assay; set-up: species or system Bos taurus
[16] = target: Alpha-(1,6)-fucosyltransferase (Homo sapiens, UniProt Q9BYC5); experiment: Inhibition of FucT-8 in human blood platelets
Chain of Alpha-(1,6)-fucosyltransferase (Q9BYC5 whole entry): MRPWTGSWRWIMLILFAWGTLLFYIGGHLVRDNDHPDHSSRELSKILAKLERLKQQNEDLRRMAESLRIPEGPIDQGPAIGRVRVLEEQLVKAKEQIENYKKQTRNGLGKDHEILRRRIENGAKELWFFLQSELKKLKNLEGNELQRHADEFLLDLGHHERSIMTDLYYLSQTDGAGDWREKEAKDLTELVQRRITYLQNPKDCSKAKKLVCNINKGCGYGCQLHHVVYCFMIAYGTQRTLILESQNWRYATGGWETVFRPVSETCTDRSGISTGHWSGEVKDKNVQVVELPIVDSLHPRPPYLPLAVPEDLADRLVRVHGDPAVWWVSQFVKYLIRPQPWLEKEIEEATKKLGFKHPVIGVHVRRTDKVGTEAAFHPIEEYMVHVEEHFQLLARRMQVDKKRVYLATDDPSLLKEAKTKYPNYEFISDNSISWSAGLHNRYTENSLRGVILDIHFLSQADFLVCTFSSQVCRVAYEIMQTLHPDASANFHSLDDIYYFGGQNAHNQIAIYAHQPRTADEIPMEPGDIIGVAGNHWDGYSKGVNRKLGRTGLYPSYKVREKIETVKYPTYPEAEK

Chain of UDP-N-acetylglucosamine--peptide N-acetylglucosaminyltransferase 110 kDa subunit (O15294 whole entry): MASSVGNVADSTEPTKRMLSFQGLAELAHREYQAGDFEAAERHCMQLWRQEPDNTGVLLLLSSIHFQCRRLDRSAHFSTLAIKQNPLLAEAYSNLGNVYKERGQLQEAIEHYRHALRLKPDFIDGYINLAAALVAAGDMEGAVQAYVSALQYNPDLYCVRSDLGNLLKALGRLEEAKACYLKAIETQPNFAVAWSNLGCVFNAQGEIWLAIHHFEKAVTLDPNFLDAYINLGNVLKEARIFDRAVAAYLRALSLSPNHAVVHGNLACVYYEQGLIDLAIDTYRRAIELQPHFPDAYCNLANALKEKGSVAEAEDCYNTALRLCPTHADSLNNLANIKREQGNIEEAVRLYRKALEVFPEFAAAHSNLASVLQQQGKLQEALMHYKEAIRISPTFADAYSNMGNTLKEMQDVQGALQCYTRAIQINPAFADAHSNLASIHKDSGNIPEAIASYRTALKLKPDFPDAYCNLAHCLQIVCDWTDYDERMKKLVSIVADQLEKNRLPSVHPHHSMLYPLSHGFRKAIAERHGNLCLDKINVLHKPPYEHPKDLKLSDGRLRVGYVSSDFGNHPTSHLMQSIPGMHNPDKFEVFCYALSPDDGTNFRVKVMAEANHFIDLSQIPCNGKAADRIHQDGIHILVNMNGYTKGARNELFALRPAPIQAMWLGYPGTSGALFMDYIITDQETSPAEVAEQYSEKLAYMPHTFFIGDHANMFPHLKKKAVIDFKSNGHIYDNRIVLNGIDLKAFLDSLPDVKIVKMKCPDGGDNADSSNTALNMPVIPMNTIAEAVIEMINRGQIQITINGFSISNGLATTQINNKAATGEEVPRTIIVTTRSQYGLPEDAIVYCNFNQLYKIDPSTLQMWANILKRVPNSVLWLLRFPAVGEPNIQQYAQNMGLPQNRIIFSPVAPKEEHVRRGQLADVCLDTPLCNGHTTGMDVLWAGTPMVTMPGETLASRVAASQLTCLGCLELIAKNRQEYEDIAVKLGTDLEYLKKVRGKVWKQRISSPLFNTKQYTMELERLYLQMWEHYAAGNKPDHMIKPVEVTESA

IC50 [1]: 53 µM
IC50 [2]: 30 µM
Compound: O=C(O)C1CC(=O)N(CC23CC4CC(CC(C4)C2)C3)/C(=N/c2ccc(Cl)cc2)S1 (stereo not given)

Ki [3]: 1100 nM
Compound: H-GNWWWW-OH

IC50 [1]: 100 µM
IC50 [2]: 60 µM
Compound: N#Cc1ccc(CSc2nc(-c3cccs3)c3c(c2C(=O)O)CCCC3)cc1

IC50 [4]: 50 µM
IC50 [5]: > 200 µM
IC50 [6]: 30.2 µM
IC50 [7]: 8 µM
IC50 [8]: > 200 µM
Compound: C[C@@H]1CC[C@H]2C(C)(C)[C@H](O)CC[C@]2(C)[C@@]12Cc1c(O)cc3c(c1O2)COC3=O

Compound: CC1CCN(CN2C(=O)/C(=C\c3ccc(C(C)(C)C)cc3)SC2=S)CC1
inhibition [9]: 88%
Ki [10]: 1300 nM

Compound: C[C@@H]1CC[C@H]2C(C)(C)[C@H](O)[C@H](O)C[C@]2(C)[C@@]12Cc1c(O)cc3c(c1O2)COC3=O
IC50 [4]: 111 µM
IC50 [5]: > 200 µM
IC50 [6]: 168 µM
IC50 [7]: 18.5 µM
IC50 [8]: > 200 µM

Compound: CN[C@H](CC(C)C)C(=O)N[C@H]1C(=O)N[C@@H](CC(N)=O)C(=O)N[C@H]2C(=O)N[C@H]3C(=O)N[C@H](C(=O)N[C@H](C(=O)O)c4cc(O)cc(O)c4-c4cc3ccc4O)[C@H](O)c3ccc(c(Cl)c3)Oc3cc2cc(c3O[C@@H]2O[C@H](CO)[C@@H](O)[C@H](O)[C@H]2O[C@H]2C[C@](C)(N)[C@H](O)[C@H](C)O2)Oc2ccc(cc2Cl)[C@H]1O [VANCOMYCIN]
IC50 [11]: 9 µM
IC50 [10]: 10 µM

IC50 [12]: 7.5 µM
IC50 [13]: 1900 nM
Compound: O=c1c(O)c(-c2ccc(O)c(O)c2)oc2ccccc12

IC50 [14]: 1000 nM
MIC (Candida albicans): 0.05 µg/mL (≈ 0.0705 µM)
Compound: CC(=O)O[C@@H]1C[C@]23C4=CC[C@@]5(C)[C@H](C(=O)O)[C@@](C)([C@H](C)C(C)C)CC[C@]5(C)[C@H]4CC[C@H]2[C@@](C)(COC3O)[C@H]1O[C@@H]1O[C@H](CO)[C@@H](O)[C@H](O)[C@H]1O (stereo not given in full) [ENFUMAFUNGIN]

Ki [15]: 39 µM
Compound: O=Cc1ccc(-c2cn([C@@H]3O[C@H](COP(=O)(O)OP(=O)(O)O[C@H]4O[C@H](CO)[C@H](O)[C@H](O)[C@H]4O)[C@@H](O)[C@H]3O)c(=O)[nH]c2=O)s1

Ki [16]: 11 µM
Compound: Nc1c(S(=O)(=O)O)cc(Nc2ccc(Nc3nc(Cl)nc(Nc4ccccc4S(=O)(=O)O)n3)c(S(=O)(=O)O)c2)c2c1C(=O)c1ccccc1C2=O [CIBACRON BLUE 3GA]
